Data reported in ChEMBL document CHEMBL5338779, “Discovery, Synthesis, and In Vitro Characterization of 2,3 Derivatives of 4,5,6,7-Tetrahydro-Benzothiophene as Potent Modulators of Retinoic Acid Receptor-Related Orphan Receptor γt” (J Med Chem, 2023).
pIC50: −log10 of the molar value. In brackets after ≈: the same amount, converted by molar mass. Activity calls are given as the source filed them. The calls are words filed in the database; no cut-off is given here.

Columns and labels:
[1] = Lipophilicity, logD of the compound at pH 7.4; details: buffer
[2] = biological target: T1, Nuclear receptor ROR-gamma (Homo sapiens, UniProt P51449); experiment: biochemical; format: cell-based, Insect cell
T1 sequence (P51449 whole entry): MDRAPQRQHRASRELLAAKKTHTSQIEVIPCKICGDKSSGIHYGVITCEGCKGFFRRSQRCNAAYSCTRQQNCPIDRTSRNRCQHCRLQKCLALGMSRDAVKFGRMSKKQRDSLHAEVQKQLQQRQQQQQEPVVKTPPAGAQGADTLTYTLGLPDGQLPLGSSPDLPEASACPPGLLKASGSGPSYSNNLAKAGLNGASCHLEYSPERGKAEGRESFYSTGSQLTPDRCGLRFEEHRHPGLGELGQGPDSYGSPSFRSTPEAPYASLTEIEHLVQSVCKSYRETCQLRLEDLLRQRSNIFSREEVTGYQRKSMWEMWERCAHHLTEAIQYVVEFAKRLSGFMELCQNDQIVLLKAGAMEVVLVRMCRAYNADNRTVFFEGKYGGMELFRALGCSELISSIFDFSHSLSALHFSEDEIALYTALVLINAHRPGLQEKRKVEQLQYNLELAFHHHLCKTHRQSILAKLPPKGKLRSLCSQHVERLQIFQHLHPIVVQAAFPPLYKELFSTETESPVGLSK

[3] = biological target: T2, Nuclear receptor ROR-gamma (Homo sapiens) (UniProt P51449); details: HEK293T, filed as inverse agonist, dose 0.004-1000 nM
T2 sequence (whole entry): T1 sequence (P51449 whole entry)

physchem [4] = details: PBS, pH 7.4
[5] = Apparent permeability across apical to basolateral side in human Caco-2 cells measured after 90 mins by LC-MS/MS analysis; details: caco-2, 1.5 h
[6] = Apparent permeability across apical to basolateral side in MDCKII-MDR1 cells at 10 uM incubated for 90 mins by LC-MS/MS analysis; details: dog, mdck-mdr1, 1.5 h
[7] = Efflux ratio of apparent permeability from apical to basolateral side over basolateral to apical side in MDCKII-MDR1 cells at 10 uM incubated for 90 mins in presence of cyclosporine A by LC-MS/MS analysis; details: dog, mdck-mdr1, 1.5 h
[8] = Substrate activity at P-gp in MDCKII-MDR1 cells assessed as efflux ratio of apparent permeability from apical to basolateral side over basolateral to apical side at 10 uM incubated for 90 mins by LC-MS/MS analysis; details: dog, mdckii-mdr1, 1.5 h
physchem [9] = details: citrate buffer, pH 5
physchem [10] = details: fasted state simulated gastric fluid, pH 1.6
[11] = biological target: T2, Nuclear receptor ROR-gamma (Homo sapiens); experiment: Inverse agonist activity at RORgammaT in human PBMC cells assessed as reduction in CD4-positive IL17A-positive cells in Th17 polarization at 10 nM incubated for 48 hrs relative to control; format: cell-based; set-up: scale not given: the % may be the effect or the level left
[12] = biological target: T2, Nuclear receptor ROR-gamma (Homo sapiens); experiment: Inverse agonist activity at RORgammaT in human PBMC cells assessed as reduction in CD4-positive IL21-positive cells in Th17 polarization at 10 nM incubated for 48 hrs relative to control; format: cell-based; set-up: scale not given: the % may be the effect or the level left
PBMC [13] = experiment: Cytotoxicity against human PBMC cells assessed as reduction in cell viability by flow cytometry method; format: toxicity, cell-based
PBMC [14] = experiment: Cytotoxicity against human PBMC cells assessed as cell death by flow cytometry method; format: toxicity, cell-based
PBMC [15] = experiment: Cytotoxicity against human PBMC cells assessed as increase in cell proliferation by flow cytometry method; format: toxicity, cell-based
[16] = biological target: T2, Nuclear receptor ROR-gamma (Homo sapiens); experiment: Inverse agonist activity at RORgammaT in human PBMC cells assessed as reduction in IFNgamma-positive T cells in Th17 polarization at 10 nM incubated for 48 hrs; format: cell-based
[17] = biological target: T2, Nuclear receptor ROR-gamma (Homo sapiens); experiment: Inverse agonist activity at RORgammaT in human PBMC cells assessed as reduction in IL22-positive T cells in Th17 polarization at 10 nM incubated for 48 hrs; format: cell-based
PBMC [18] = experiment: Induction of apoptosis in human PBMC cells by flow cytometry method; format: toxicity, cell-based
[19] = buffer, pH 7.4, 2 h

Structure (SMILES)	logD [1]	pIC50 [2]	deltaG [3]	solubility kinetic at 2 h (physchem [4])	Papp [5]	Papp [6]	solubility kinetic at 2 h (physchem [9])	solubility kinetic at 2 h (physchem [10])	other results
O=C(Nc1sc2c(c1C(=O)c1ccccc1)CCCC2)c1cnccn1	4.15	7.71	-10.1 kcal/mol	18.3 µM (≈ 6.67 µg/mL)	–	–	–	–	–
O=C(Nc1sc2c(c1C(=O)NCC1CCNCC1)CCCC2)c1cccnc1	0.4	7.24	-7.29 kcal/mol	84.7 µM (≈ 33.8 µg/mL)	–	–	–	–	–
O=C(CN1CCCCC1)Nc1sc2c(c1C(=O)NCc1ccccc1)CCCC2	4.33	8.67	-10.3 kcal/mol	19.7 µM (≈ 8.11 µg/mL)	–	–	–	–	–
Cc1ccnc(SCC(=O)Nc2sc3c(c2C(=O)NCc2ccccc2)CCCC3)n1	4.92	9.16	-10.2 kcal/mol	3.23 µM (≈ 1.46 µg/mL)	–	–	–	–	–
CSc1ncc(Cl)c(C(=O)Nc2sc3c(c2C(=O)NC2CCS(=O)(=O)C2)CCC(C)C3)n1 (stereo not drawn)	3.28	8.35	-9.75 kcal/mol	40.2 µM (≈ 20.7 µg/mL)	1.4 10^-6 cm/s	2.5 10^-6 cm/s	9.72 µM (≈ 5.01 µg/mL)	1.7 µM (≈ 0.876 µg/mL)	Ratio [7]: 1.1; Ratio [8]: 8.7
CSc1ncc(Cl)c(C(=O)Nc2sc3c(c2C(=O)NCc2ccccc2)CCCC3)n1	5.45	9.40	-11.6 kcal/mol	≤ 1 µM	4.2 10^-6 cm/s	8 10^-6 cm/s	–	–	Activity [11]: 20%; Ratio [7]: 0.3; Activity [12]: 20%; Activity (PBMC [13]): Non-Toxic; Activity (PBMC [14]): Non-Toxic; Activity (PBMC [15]): Non-Toxic; Activity [16]: inactive; Activity [17]: inactive; Activity (PBMC [18]): Non-Toxic; Ratio [8]: 0.3
Cn1cnc(CNC(=O)c2c(NC(=O)c3cccnc3)sc3c2CCCC3)n1	1.62	8.46	-13.3 kcal/mol	93.6 µM (≈ 37.1 µg/mL)	–	–	–	–	–
CCc1ccc(N(CC(C)C)S(=O)(=O)c2ccc(OCC3CCOCC3)c(CO)c2)cc1 [GSK2981278]	4.11	8.77	–	–	–	–	–	–	Kinetic_solubility [19]: Insoluble
Cc1cnc(S(C)(=O)=O)nc1C(=O)Nc1sc2c(c1C(=O)c1ccccc1)CCCC2	3.94	7.78	-10.1 kcal/mol	≤ 1 µM	–	–	–	–	–
CN1CCN(CC(=O)Nc2sc3c(c2C(=O)NCc2ccccc2)CCCC3)CC1	3.06	8.93	-12.5 kcal/mol	99.3 µM (≈ 42.4 µg/mL)	4.6 10^-6 cm/s	6.8 10^-6 cm/s	357 µM (≈ 152 µg/mL)	≥ 400 µM	Ratio [7]: 1.2; Ratio [8]: 1.1
Cn1ccnc1SCC(=O)Nc1sc2c(c1C(=O)NCc1ccccc1)CCCC2	4.44	–	–	8.05 µM (≈ 3.55 µg/mL)	18 10^-6 cm/s	27.8 10^-6 cm/s	13.6 µM (≈ 5.97 µg/mL)	267 µM (≈ 118 µg/mL)	–
CC1CCc2c(sc(NC(=O)c3ccccc3F)c2C(=O)N2CCN(C)CC2)C1 (stereo not drawn)	3.59	–	–	27.7 µM (≈ 11.5 µg/mL)	28.2 10^-6 cm/s	28.9 10^-6 cm/s	349 µM (≈ 145 µg/mL)	≥ 400 µM	–
O=C(NCc1ccccc1)c1c(NC(=O)C(F)(F)F)sc2c1CCCC2	4.43	8.68	-10.2 kcal/mol	28.8 µM (≈ 11 µg/mL)	–	–	–	–	–
C[C@@H]1CCN(C(=O)c2c(NC(=O)c3cccnc3)sc3c2CCCC3)[C@H](C)C1 (single isomer, unassigned)	4.45	–	–	27 µM (≈ 10.7 µg/mL)	–	–	23.7 µM (≈ 9.43 µg/mL)	≥ 200 µM	–
CCC1CCN(C(=O)c2c(NC(=O)c3cccnc3)sc3c2CCCC3)C1 (stereo not drawn)	4.05	–	–	32.9 µM (≈ 12.6 µg/mL)	–	–	–	–	–
CN1CCN(C(=O)c2c(NC(=O)c3ccccc3F)sc3c2CCC(C(C)(C)C)C3)CC1 (stereo not drawn)	5.06	–	–	10.6 µM (≈ 4.83 µg/mL)	–	–	–	–	–
C[C@@H](C#N)NC(=O)c1c(NC(=O)c2cccnc2)sc2c1CCCC2	2.85	–	–	90.9 µM (≈ 32.2 µg/mL)	–	–	–	–	–
CC1CCN(CC(=O)Nc2sc3c(c2C(=O)NCc2ccccc2)CCCC3)CC1	4.57	–	–	12.4 µM (≈ 5.29 µg/mL)	1.2 10^-6 cm/s	1.3 10^-6 cm/s	3.02 µM (≈ 1.29 µg/mL)	364 µM (≈ 155 µg/mL)	–
CC1(C)CCc2c(sc(NC(=O)c3cnccn3)c2C(=O)N2CCOCC2)C1	3	–	–	34.8 µM (≈ 13.9 µg/mL)	–	–	–	–	–
CCC1CCc2c(sc(NC(=O)c3ccnn3C)c2C(=O)Nc2ccccc2C)C1 (stereo not drawn)	4.72	–	–	≤ 1 µM	1.8 10^-6 cm/s	3.2 10^-6 cm/s	8.13 µM (≈ 3.44 µg/mL)	2.8 µM (≈ 1.18 µg/mL)	–
O=C(Nc1sc2c(c1C(=O)N1CCC(CO)C1)CCCC2)c1cccnc1 (stereo not drawn)	2.6	7.34	-6.16 kcal/mol	79.3 µM (≈ 30.6 µg/mL)	4.4 10^-6 cm/s	5.2 10^-6 cm/s	365 µM (≈ 141 µg/mL)	330 µM (≈ 127 µg/mL)	Ratio [7]: 1.4; Ratio [8]: 4.7
CC1CCCN1C(=O)c1c(NC(=O)c2cccnc2)sc2c1CCCC2 (stereo not drawn)	3.68	8.45	-7.57 kcal/mol	31.3 µM (≈ 11.6 µg/mL)	34.2 10^-6 cm/s	29 10^-6 cm/s	392 µM (≈ 145 µg/mL)	≥ 400 µM	Ratio [7]: 0.8; Ratio [8]: 0.8
